Data from ChEMBL document CHEMBL5241098, “Progress in the development of small molecular inhibitors of the Bruton's tyrosine kinase (BTK) as a promising cancer therapy” (Bioorg Med Chem, 2021).
Blank lines part the entries; values can stand above or below the compound they belong to.

Experiments:
[1] = biological target: T1, Protein cereblon/Tyrosine-protein kinase BTK (Homo sapiens, UniProt Q06187+Q96SW2); test: PROTAC activity at CRBN/BTK in human MINO cells assessed as decrease in BTK level by measuring maximal efficacy incubated for 24 hrs by Western blot analysis relative to control; type: cell-based
Target sequence in this assay (Q06187 2-659 limits assumed): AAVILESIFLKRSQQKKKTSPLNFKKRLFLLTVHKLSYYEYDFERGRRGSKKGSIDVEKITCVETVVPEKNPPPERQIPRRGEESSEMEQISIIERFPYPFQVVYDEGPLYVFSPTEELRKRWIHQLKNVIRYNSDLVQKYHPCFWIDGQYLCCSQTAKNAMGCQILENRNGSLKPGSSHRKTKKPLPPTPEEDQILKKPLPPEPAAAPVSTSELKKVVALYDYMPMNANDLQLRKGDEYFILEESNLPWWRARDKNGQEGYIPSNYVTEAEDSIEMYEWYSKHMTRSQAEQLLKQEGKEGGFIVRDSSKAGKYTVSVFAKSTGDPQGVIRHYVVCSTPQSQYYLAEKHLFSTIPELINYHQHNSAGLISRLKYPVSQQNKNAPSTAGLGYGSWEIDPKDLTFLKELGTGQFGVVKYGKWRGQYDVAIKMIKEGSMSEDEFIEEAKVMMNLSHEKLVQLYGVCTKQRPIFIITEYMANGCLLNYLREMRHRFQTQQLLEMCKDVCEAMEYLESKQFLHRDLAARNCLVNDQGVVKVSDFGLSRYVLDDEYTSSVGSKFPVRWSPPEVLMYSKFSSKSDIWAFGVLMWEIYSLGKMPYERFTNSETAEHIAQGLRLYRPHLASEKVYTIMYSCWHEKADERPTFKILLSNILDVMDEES
Target sequence in this assay (Q96SW2 whole entry partner): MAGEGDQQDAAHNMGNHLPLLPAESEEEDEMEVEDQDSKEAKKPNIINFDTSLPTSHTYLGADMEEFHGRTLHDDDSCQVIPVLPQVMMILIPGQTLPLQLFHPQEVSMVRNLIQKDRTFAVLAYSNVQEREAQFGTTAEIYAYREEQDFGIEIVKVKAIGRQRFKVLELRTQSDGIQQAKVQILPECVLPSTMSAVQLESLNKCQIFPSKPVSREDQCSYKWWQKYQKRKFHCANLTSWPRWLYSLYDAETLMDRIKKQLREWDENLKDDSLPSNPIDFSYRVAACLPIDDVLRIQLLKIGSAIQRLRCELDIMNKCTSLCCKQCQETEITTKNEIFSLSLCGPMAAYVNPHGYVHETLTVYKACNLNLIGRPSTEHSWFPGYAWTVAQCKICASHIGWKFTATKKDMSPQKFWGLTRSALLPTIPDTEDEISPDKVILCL

[2] = biological target: T1, Protein cereblon/Tyrosine-protein kinase BTK; test: PROTAC activity at CRBN/BTK in human MINO cells assessed as decrease in BTK level incubated for 24 hrs by Western blot analysis; type: cell-based
Target sequence in this assay (Q06187 whole entry): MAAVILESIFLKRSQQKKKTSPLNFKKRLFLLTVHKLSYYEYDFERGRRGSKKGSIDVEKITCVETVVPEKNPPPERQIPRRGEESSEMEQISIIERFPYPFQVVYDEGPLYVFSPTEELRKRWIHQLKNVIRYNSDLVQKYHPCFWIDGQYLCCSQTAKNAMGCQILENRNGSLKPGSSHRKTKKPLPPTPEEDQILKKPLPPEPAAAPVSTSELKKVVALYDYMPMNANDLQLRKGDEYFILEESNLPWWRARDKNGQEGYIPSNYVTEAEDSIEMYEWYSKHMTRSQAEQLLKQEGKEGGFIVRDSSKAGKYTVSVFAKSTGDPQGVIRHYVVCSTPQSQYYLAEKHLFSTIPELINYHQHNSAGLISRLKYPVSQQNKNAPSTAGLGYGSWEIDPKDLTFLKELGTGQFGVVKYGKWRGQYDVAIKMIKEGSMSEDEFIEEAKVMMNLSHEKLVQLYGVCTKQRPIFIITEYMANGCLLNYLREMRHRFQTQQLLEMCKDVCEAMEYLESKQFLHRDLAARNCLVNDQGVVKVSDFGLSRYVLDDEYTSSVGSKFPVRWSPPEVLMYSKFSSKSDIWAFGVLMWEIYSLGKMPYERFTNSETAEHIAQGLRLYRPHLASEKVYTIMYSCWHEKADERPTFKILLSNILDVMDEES
Target sequence in this assay (Q96SW2 whole entry): as the sequence (Q96SW2 whole entry partner) above

[3] = biological target: E3 ubiquitin-protein ligase XIAP/Tyrosine-protein kinase BTK (Homo sapiens, UniProt P98170+Q06187); test: PROTAC activity at IAP/BTK in human THP-1 cells assessed as reduction in BTK level incubated for 16 hrs by immunoblot analysis; type: cell-based
Sequence of E3 ubiquitin-protein ligase XIAP/Tyrosine-protein kinase BTK (P98170 whole entry): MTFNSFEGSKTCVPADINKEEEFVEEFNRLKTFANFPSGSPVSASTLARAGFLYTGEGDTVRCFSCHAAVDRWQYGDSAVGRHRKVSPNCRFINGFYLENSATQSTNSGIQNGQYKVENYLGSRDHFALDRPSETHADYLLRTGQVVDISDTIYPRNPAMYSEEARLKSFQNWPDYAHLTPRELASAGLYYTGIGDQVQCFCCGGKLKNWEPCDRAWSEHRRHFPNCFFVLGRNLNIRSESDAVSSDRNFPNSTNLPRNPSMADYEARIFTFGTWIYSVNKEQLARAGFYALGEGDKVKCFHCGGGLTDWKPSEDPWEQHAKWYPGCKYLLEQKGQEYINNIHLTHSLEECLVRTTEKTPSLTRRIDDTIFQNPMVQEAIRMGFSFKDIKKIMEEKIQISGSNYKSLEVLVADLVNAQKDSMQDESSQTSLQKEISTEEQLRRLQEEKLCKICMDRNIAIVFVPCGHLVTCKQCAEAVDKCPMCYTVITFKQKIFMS
Sequence of E3 ubiquitin-protein ligase XIAP/Tyrosine-protein kinase BTK (Q06187 whole entry): as the sequence (Q06187 whole entry) above

[4] = biological target: Protein cereblon/Tyrosine-protein kinase BTK (Homo sapiens, UniProt Q06187+Q96SW2, C481S); test: PROTAC activity at CRBN/BTK C481S mutant in human HBL1 cells assessed as decrease in BTK C481S level incubated for 36 hrs by Western blot analysis; type: cell-based
Sequence of Protein cereblon/Tyrosine-protein kinase BTK (Homo sapiens, UniProt Q06187+Q96SW2, C481S) (Q06187 2-659 C481S limits assumed, stated change not applied): as the sequence (Q06187 2-659 limits assumed) above, with C480S counted along it
Sequence of Protein cereblon/Tyrosine-protein kinase BTK (Homo sapiens, UniProt Q06187+Q96SW2, C481S) (Q96SW2 whole entry, stated change not applied): as the sequence (Q96SW2 whole entry partner) above

A549 = test: Antiproliferative activity against human A549 cells assessed as inhibition of cell growth
[5] = Antiproliferative activity against human MINO cells assessed as inhibition of cell growth
[6] = biological target: T2, Tyrosine-protein kinase BTK (Homo sapiens, UniProt Q06187); test: Competitive inhibition of recombinant human BTK incubated for 10 mins in the presence of ATP by mobility shift assay
T2 sequence (Q06187 whole entry): as the sequence (Q06187 whole entry) above

OCI-Ly10 = test: Antiproliferative activity against human OCILY10 cells assessed as inhibition of cell growth
[7] = Inhibition of CDK2/Cyclin E (unknown origin) in the presence of ATP; set-up: species or system Homo sapiens
[8] = biological target: T2, Tyrosine-protein kinase BTK; test: Inhibition of BTK (unknown origin) in the presence of ATP
[9] = biological target: T2, Tyrosine-protein kinase BTK; test: Inhibition of BTK (unknown origin)
OCI-Ly7 = test: Growth inhibition of human OCILY7 cells; type: functional
[10] = biological target: Tyrosine-protein kinase Lck (Homo sapiens, UniProt P06239); test: Inhibition of LCK (unknown origin)
Sequence of Tyrosine-protein kinase Lck (P06239 whole entry): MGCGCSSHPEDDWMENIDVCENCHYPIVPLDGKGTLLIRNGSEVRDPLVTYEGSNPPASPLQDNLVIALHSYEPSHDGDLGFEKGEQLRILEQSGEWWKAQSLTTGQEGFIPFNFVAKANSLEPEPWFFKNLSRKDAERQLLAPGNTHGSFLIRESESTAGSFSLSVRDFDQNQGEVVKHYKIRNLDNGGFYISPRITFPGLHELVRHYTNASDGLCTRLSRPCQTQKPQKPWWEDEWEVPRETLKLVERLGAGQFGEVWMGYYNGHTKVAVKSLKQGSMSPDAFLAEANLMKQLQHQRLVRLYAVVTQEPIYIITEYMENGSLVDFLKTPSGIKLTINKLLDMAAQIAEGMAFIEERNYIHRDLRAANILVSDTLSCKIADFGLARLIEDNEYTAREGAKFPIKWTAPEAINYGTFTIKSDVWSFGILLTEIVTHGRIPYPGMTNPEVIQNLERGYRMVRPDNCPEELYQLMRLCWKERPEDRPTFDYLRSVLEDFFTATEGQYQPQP

U2932 = test: Growth inhibition of human U2932 cells; type: functional
[11] = biological target: T3, Tyrosine-protein kinase JAK3 (Homo sapiens, UniProt P52333); test: Inhibition of JAK3 (unknown origin)
T3 sequence (P52333 whole entry): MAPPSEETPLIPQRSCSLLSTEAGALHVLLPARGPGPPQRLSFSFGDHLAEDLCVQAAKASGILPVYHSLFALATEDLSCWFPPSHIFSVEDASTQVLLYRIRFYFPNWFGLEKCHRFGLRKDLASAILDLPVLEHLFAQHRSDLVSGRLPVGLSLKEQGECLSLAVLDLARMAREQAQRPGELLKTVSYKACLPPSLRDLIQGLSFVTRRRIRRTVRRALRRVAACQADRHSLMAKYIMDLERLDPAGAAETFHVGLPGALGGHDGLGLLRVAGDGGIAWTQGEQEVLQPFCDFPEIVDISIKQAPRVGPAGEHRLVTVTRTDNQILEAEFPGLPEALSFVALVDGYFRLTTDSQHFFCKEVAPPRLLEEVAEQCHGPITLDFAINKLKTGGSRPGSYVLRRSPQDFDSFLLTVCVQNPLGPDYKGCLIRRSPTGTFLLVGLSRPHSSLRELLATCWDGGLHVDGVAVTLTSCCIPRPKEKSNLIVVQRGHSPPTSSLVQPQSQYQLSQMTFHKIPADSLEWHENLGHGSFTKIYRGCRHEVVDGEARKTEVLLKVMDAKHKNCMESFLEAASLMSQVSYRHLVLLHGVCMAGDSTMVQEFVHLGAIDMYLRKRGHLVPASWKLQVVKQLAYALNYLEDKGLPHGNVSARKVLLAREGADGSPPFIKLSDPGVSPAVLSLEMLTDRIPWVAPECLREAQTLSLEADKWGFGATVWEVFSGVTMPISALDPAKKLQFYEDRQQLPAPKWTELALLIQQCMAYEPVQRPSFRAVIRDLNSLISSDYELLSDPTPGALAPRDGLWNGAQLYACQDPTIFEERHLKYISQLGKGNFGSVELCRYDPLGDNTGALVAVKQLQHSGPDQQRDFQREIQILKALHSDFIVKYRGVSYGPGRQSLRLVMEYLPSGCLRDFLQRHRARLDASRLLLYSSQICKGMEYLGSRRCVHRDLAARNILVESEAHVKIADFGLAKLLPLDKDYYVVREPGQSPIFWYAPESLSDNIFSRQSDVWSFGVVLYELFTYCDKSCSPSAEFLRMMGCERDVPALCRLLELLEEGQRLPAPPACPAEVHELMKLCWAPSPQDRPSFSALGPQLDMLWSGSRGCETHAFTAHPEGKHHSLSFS

Ramos = test: Growth inhibition of human Ramos cells; type: functional
[12] = biological target: Epidermal growth factor receptor (Homo sapiens, UniProt P00533); test: Inhibition of EGFR (unknown origin)
Sequence of Epidermal growth factor receptor (P00533 whole entry): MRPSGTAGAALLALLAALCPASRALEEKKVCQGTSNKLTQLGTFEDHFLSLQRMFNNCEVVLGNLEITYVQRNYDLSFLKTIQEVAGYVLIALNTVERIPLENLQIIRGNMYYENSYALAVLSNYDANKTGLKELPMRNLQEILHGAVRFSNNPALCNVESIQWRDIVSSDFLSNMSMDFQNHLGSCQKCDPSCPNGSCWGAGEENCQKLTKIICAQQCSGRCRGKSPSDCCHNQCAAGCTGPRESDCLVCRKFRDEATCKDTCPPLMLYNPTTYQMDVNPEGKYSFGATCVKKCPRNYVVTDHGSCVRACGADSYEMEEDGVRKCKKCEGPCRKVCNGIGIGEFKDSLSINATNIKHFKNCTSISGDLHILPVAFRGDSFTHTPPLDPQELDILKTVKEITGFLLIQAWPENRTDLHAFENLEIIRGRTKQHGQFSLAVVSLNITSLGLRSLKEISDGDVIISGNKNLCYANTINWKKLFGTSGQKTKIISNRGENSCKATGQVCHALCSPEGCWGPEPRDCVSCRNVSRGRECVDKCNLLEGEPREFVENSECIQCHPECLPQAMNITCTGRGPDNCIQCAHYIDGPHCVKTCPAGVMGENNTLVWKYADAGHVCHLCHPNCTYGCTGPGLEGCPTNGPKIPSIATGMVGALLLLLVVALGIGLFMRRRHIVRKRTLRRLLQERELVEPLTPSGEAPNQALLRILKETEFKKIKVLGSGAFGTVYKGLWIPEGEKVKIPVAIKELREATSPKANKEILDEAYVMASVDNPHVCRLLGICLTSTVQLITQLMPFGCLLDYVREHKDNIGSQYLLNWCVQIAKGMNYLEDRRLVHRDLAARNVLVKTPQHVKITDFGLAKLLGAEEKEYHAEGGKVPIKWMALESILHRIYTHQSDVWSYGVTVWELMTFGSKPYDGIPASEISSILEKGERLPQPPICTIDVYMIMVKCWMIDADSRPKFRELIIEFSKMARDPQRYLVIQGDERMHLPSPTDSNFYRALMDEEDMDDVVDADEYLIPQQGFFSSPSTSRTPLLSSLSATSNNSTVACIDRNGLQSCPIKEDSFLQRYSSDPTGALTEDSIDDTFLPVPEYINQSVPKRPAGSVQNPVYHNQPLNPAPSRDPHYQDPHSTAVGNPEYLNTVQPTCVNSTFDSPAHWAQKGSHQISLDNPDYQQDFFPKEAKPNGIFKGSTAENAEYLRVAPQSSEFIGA

[13] = Antiproliferative activity against human MINO cells assessed as reduction in cell viability incubated for 72 hrs by CellTiter Glo luminescence assay
[14] = biological target: T2, Tyrosine-protein kinase BTK; test: Inhibition of BTK (unknown origin) incubated for 40 mins in the presence of ATP by scintillation based radiometric protein kinase assay
Maver1 = test: Antiproliferative activity against human MAVER-1 cells assessed as reduction in cell viability incubated for 72 hrs by CellTiter Glo luminescence assay; conditions: Maver1, 72 h
Z-138 = test: Antiproliferative activity against human Z138 cells assessed as reduction in cell viability incubated for 72 hrs by CellTiter Glo luminescence assay; conditions: Z-138, 72 h
JeKo-1 = test: Antiproliferative activity against BTK knockout human JeKo-1 cells assessed as reduction in cell viability incubated for 72 hrs by CellTiter Glo luminescence assay; conditions: JeKo-1, 72 h

IC50 [8]: 660 nM
SMILES: CN1CCN(c2ccc(Nc3nc(Nc4cccc(F)c4)c4ncn(CC5CC5)c4n3)cc2)CC1

IC50 [9]: < 5 nM | GI50 (OCI-Ly7): 220 nM
SMILES: C=CC(=O)NCC(=O)Nc1ncc(NC(=O)c2cc(C)cc(NC(=O)c3cccc(C)c3)c2)cn1

IC50 [10]: 3.9 nM
SMILES: O=C(c1ccc(Oc2ccccc2)cc1Cl)c1c[nH]c2ncnc(NC3CC[C@@H](CO)OC3)c12 (stereo partly specified)

IC50 [9]: 6.59 nM | IC50 [11]: 5180 nM | GI50 (Ramos): 370 nM | IC50 [12]: 4310 nM
SMILES: C=CC(=O)N1CCc2ccc(N3C(=O)CCc4cnc5ccc(-c6cnn(C)c6)cc5c43)cc21
GI50 (U2932): 200 nM

IC50 [14]: 50 nM
SMILES: C=CC(=O)Nc1cccc(Cn2nc(-c3ccc(Oc4ccccc4)cc3)c3c(N)ncnc32)c1
IC50 [13]: 1300 nM | IC50 (Maver1): 2600 nM | IC50 (Z-138): 2800 nM | IC50 (JeKo-1): 1300 nM

IC50 [8]: 900 nM
SMILES: CN1CCN(c2ccc(Nc3nc(Nc4ccccc4)c4ncn(CC5CC5)c4n3)cc2)CC1

Continued, compound first:

SMILES: Nc1ncnc2c1c(-c1ccc(Oc3ccccc3)cc1)nn2C1CCCN(C(=O)/C=C/CCCCCOCCOCCOCCOCCOc2cccc3c2C(=O)N(C2CCC(=O)NC2=O)C3=O)C1 (stereo unspecified)
Emax [1]: 90% | EC50 [2]: 10 nM

SMILES: CN[C@H](C)C(=O)N[C@@H](C(=O)N1C[C@@H](NC(=O)COCCOCCOCCOCCN2CCN(CCCC(=O)N3CCCC(n4nc(-c5ccc(Oc6ccccc6)cc5)c5c(N)ncnc54)C3)CC2)C[C@H]1C(=O)N[C@@H]1CCCc2ccccc21)C1CCCCC1 (stereo partly specified)
EC50 [3]: 200 nM

SMILES: Nc1ncnc2c1c(-c1ccc(Oc3ccccc3)cc1)nn2C1CCCN(C(=O)c2cn(CCOCCOCCOCCCc3cccc4c3CN(C3CCC(=O)NC3=O)C4=O)nn2)C1 (stereo unspecified)
EC50 [4]: 29 nM

SMILES: C=C(Cl)C(=O)N1CCC(n2nc(-c3ccc(Oc4ccccc4)cc3)c3c(N)ncnc32)CC1
IC50 (A549): 3890 nM | IC50 [5]: 560 nM | IC50 [6]: 2.5 nM | IC50 (OCI-Ly10): 200 nM

SMILES: CN1CCN(c2ccc(Nc3nc(Nc4ccc(F)c(F)c4)c4ncn(CC5CC5)c4n3)cc2)CC1
IC50 [7]: 18500 nM

SMILES: Nc1ncnc2c1c(-c1ccc(Oc3ccccc3)nc1)nn2C1CCCN(C(=O)CCl)C1 (stereo unspecified)
IC50 (Maver1): 400 nM | IC50 (JeKo-1): 400 nM
